Like-named read-outs stand apart in the source and are kept apart here.
Experiments:
[1] = test system: platelet aggregation induced by PAF; test: PAF-induced platelet aggregation inhibition (method of Born, aggregometer, platelet rich plasma); type: cell-based; settings: in vitro, rabbit PRP 50-55×10^4 /μl, 37° C., PAF C16 final 20 nM added 2 minutes after compound, read-out: IC50 (concentration of the test compounds which inhibit 50% platelet aggregation)
Protocol: Mature male rabbits (NIBS-JW, RABITON Institute Inc., weighing 2.2-2.5 kg) were used. […] (The total volume of blood sample in each tube was adjusted to 8 ml.)
The blood sample in each tube was gently shaken and then centrifuged for 10 minutes at 200 g at 22° C. to give platelet rich plasma (PRP). The remaining blood was further centrifuged at 3,000 rpm (about 1,900 g) for 10 minutes at 22° C. to give platelet-poor plasma (PPP).
PRP was diluted with PPP to prepare a blood sample whose platelet number was 50-55×10^4 /μl. The sample was then subjected to a platelet aggregation test.
A volume of 230 μl of PRP, whose platelet number was adjusted to 50-55×10^4 /μl, was placed in a measuring cuvette and set in the aggregometer. PRP was warmed at 37° C. for 1 minute with stirring at 1,200 rpm, and then a solution of the test compound [dimethylsulfoxide solution (1μl) of the compound+saline (9μl)] was added thereto. Exactly 2 minutes later, 10 μl of platelet activating factor (PAF, C16) (final concentration: 20 nM) was added as a platelet aggregating agent, and the change in light transmission caused by platelet aggregation was recorded.
The light transmissions of PRP and PPP were taken as 0% and 100% aggregation, respectively, and the maximum light transmission after addition of an aggregating agent was made the maximum aggregation. The inhibition rate of the platelet aggregation was expressed as the percentage of the maximum aggregation by a test compound to that by a control (Vehicle added group).

[2] = test system: platelet aggregation induced by PAF; settings: known property of the reference compound; cited from earlier work
[3] = Oryctolagus cuniculus, Platelet, 2 min

Compound	IC50 [1, 3] [nM]	also measured
2-methoxy-1-octadecylcarbamoylthio-3-(4-quinoliniopropylsulfonyamino)propane chloride [I a27]	–	IC50 [1]: 740 nM
CCCCCCCCCCCCCCCCCCNC(=O)OCC(CNS(=O)(=O)CCC[N+](C)(C)C)OC (stereo not drawn) [I a1, 2-methoxy-1-octadecylcarbamoyloxy-3-(3-trimethylammoniosulfonylamino)propane chloride]	48100	–
CCCCCCCCCCCCCCCCCCNC(=O)OCC(CNS(=O)(=O)CCC[n+]1ccsc1)OC (stereo not drawn) [I a2, 2-methoxy-1-octadecylcarbamoyloxy-3-(3-thiazoliopropylsulfonylamino)propane iodide]	1890	–
CCCCCCCCCCCCCCCCCCNC(=O)OCC(CNS(=O)(=O)CCC[n+]1ccccc1)OC (stereo not drawn) [I a3]	5200	–
CCCCCCCCCCCCCCCCCCNC(=O)OCC(CNS(=O)(=O)CCC[N+]1(C)CCOCC1)OC (stereo not drawn) [I a4]	64200	–
CCCCCCCCCCCCCCCCCCNC(=O)OCC(CNS(=O)(=O)CCC[n+]1cscc1C)OC (stereo not drawn) [I a5]	1890	–
CCCCCCCCCCCCCCCCCCNC(=O)OCC(CNS(=O)(=O)CCC[n+]1ccncc1)OC (stereo not drawn) [I a6]	45400	–
CCCCCCCCCCCCCCCCCCNC(=O)OCC(CNS(=O)(=O)CCC[n+]1cccc2ccccc21)OC (stereo not drawn) [I a7]	650	–
CCCCCCCCCCCCCCCCSCC(CNS(=O)(=O)CCC[N+](C)(C)C)OC (stereo not drawn) [I a8, 1-hexadecylthio-2-methoxy-3-(3-trimethylammoniopropylsulfonylamino)propaneiodide]	82100	–
CCCCCCCCCCCCCCCCSCC(CNS(=O)(=O)CCC[n+]1ccsc1)OC (stereo not drawn) [I a9, 1-hexadecylthio-2-methoxy-3-(3-thiazoliopropylsulfonylamino)propane iodide]	3640	–
CCCCCCCCCCCCCCCCOCC(CNS(=O)(=O)CCC[N+](C)(C)C)OC (stereo not drawn) [I a10, 1-hexadecyloxy-2-methoxy-3-(3-trimethylammoniopropylsulfonylamino)propane iodide]	79900	–
CCCCCCCCCCCCCCCCOCC(CNS(=O)(=O)CCC[n+]1ccsc1)OC (stereo not drawn) [I a11, 1-hexadecyloxy-2-methoxy-3-(3-thiazoliopropylsulfonylamino)propane iodide]	2970	–
CCCCCCCCCCCCCCCCCCNC(=O)OCC(CNS(=O)(=O)CC[n+]1ccsc1)OC (stereo not drawn) [I a12, 2-methoxy-1-octadecylcarbamoyloxy-3-(2-thiazolioethylsulfonylamino)propaneiodide]	5950	–
CCCCCCCCCCCCCCCCCCNC(=O)OCC(CNS(=O)(=O)CCCC[n+]1ccsc1)OC (stereo not drawn) [I a13, 2-methoxy-1-octadecylcarbamoyloxy-3-(4-thiazoliobutylsulfonylamino)propaneiodide]	1770	–
CCCCCCCCCCCCCCCCCCNC(=O)OCC(CNS(=O)(=O)CCCC[n+]1cccc2ccccc21)OC (stereo not drawn) [I a14]	1290	–
CCCCCCCCCCCCCCCCCCNC(=O)OCC(CNS(=O)(=O)CCCC[n+]1ccc2ccccc2c1)OC (stereo not drawn) [I a16]	13500	–
CCCCCCCCCCCCCCCCCCNC(=O)OCC(CNS(=O)(=O)CCCC[n+]1ccc2ccccc2c1)OC (stereo not drawn) [I a20]	–	IC50 [1]: 16000 nM
CCCCCCCCCCCCCCCCCCNC(=O)SCC(CNS(=O)(=O)CCC[n+]1cccc2ccccc21)OC (stereo not drawn) [I a25, 2-methoxy-1-octadecylcarbamoylthio-3-(3-quinoliniopropylsulfonylamino)propane iodide]	360	–
CCCCCCCCCCCCCCCCCCNC(=O)SCC(CNS(=O)(=O)CCC[n+]1ccsc1)OC (stereo not drawn) [I a26, 2-methoxy-1-octadecylcarbamoylthio-3-(3-thiazoliniopropylsulfonylamino)propane iodide]	1930	–

Compound	IC50 [1, 3] [nM]	also measured
CCCCCCCCCCCCCCCCCCNC(=O)OCC1(CNS(=O)(=O)CCC[n+]2cccc3ccccc32)CCCO1 (stereo not drawn) [I b2, 2-octadecylcarbamoyloxymethyl-2-(3-qunoliniopropylsulfonylaminomethyl)tetrahydrofuran iodido]	385	–
CCCCCCCCCCCCCCCCSCC(CNS(=O)(=O)CCC[n+]1cccc2ccccc21)OC(=O)NC (stereo not drawn) [I c1, 1-hexadecylthio-2-methylcarbamoyloxy-3-(3-quinoliniopropylsulfonylamino)propane iodide]	920	–
CCCCCCCCCCCCCCCCCCNC(=O)OCC(CNS(=O)(=O)CCC[n+]1cccc2ccccc21)OC(=O)NC (stereo not drawn) [I c3, 2-methylcarbamoyloxy-1-octadecylcarbamoyloxy-3(3-quinoliniopropylsulfonylamino)propane iodide]	330	–
CCCCCCCCCCCCCCCCCCNC(=O)OCC(CNS(=O)(=O)CCC[n+]1cccc2ccccc21)NC(=O)OC (stereo not drawn) [I e5, 1-octadecylcarbamoyloxy-2-methoxycarbonylamino-3-(3-quinoliniopropylsulfonylamino)propane iodide]	533	–
CCCCCCCCCCCCCCCCCCNC(=O)OCC(CNS(=O)(=O)CCC[n+]1cccc2ccccc21)NC(=O)OC(C)(C)C (stereo not drawn) [I e6, 2-tert-butoxycarbonylamino-1-octadecylcarbamoyloxy-3-(3-quinoliniopropylsulfonylamino)propane iodide]	3090	–
CCCCCCCCCCCCCCCCSCC(CNS(=O)(=O)CCC[n+]1cccc2ccccc21)NC(=O)OC (stereo not drawn) [I e7, 1-hexadecylthio-2-methoxycarbonylamino-3-(3-quinoliniopropylsulfonylamino)propane iodide]	850	–
CCCCCCCCCCCCCCCCSCC(CNS(=O)(=O)CCC[n+]1cccc2ccccc21)NC(=O)OC(C)(C)C (stereo not drawn) [I e8, 2-tert-butoxycarbonylamino-1-hexadecylthio-3-(3-quinoliniopropylsulfonylamino)propane iodide]	1970	–
CCCCCCCCCCCCCCCCCCNC(=O)OCC(CNS(=O)(=O)CCC[n+]1cccc2ccccc21)NC(=O)NC (stereo not drawn) [I f3, 1-octadecylcarbamoyloxy-2-(3-methylureido)-3-(3-quinoliniopropylsulfonylamino)propane iodide]	965	–
CCCCCCCCCCCCCCCCSCC(CNS(=O)(=O)CCC[n+]1cccc2ccccc21)NC(=O)NC (stereo not drawn) [I f4]	873	–
CCCCCCCCCCCCCCCCSCC(CNS(=O)(=O)CCC[N+](C)(C)C)NC(C)=O (stereo not drawn) [I g2, 2-acetamido-1-hexadecylthio-3-(3-trimethylammoniopropylsulfonylamino)propane iodide]	14300	–
CCCCCCCCCCCCCCCCCCNC(=O)OCC(CNS(=O)(=O)CCC[n+]1cccc2ccccc21)NC(C)=O (stereo not drawn) [I g4, 2-acetamido-1-octadecylcarbamoyloxy-3-(3-quinoliniopropylsulfonylamino)propane iodide]	1830	–
CCCCCCCCCCCCCCCCCCNC(=O)OCC(CN(C(C)=O)S(=O)(=O)CCC[n+]1cccc2ccccc21)NC(C)=O (stereo not drawn) [I g6, 3-(N-acetyl-3-quinoliniopropylsulfonylamino)-2-acetamido-1-octadecylcarbamoyloxypropane iodide]	1320	–
CCCCCCCCCCCCCCCCSCC(CNS(=O)(=O)CCC[N+](C)(C)C)n1nnc(C)n1 (stereo not drawn) [I h1, 1-hexadecylthio-2-(5-methyl-2H-tetrazol-2-yl)-3-(3-trimethylammoniopropylsulfonylamino)propane iodide]	23200	–
CCCCCCCCCCCCCCCCCCNC(=O)OCC(CNS(=O)(=O)CCC[n+]1cccc2ccccc21)Oc1ccon1 (stereo not drawn) [I j3, 2-(3-isoxazolyloxy)-1-octadecylcarbamoyloxy-3-(3-quinoliniopropylsulfonylamino)propane iodide]	250	–
CCCCCCCCCCCCCCCCOCC(CNS(=O)(=O)CCC[n+]1cccc2ccccc21)COC (stereo not drawn) [I k3, 1-hexadecyloxy-2-methoxymethyl-3-(3-quinoliniopropylsulfonylamino)propane iodide]	600	–
CCCCCCCCCCCCCCCCSCC(CNS(=O)(=O)CCC[N+](C)(C)C)COC (stereo not drawn) [I k4, 1-hexadecylthio-2-methoxymethyl-3-(3-trimethylammoniopropylsulfonylamino)propane iodide]	80300	–
CCCCCCCCCCCCCCCCCCNC(=O)OCC(CNS(=O)(=O)CCC[n+]1cccc2ccccc21)COC (stereo not drawn) [I k5, 2-methoxymethyl-1-octadecylcarbamoyloxy-3-(3-quinoliniopropylsulfonylamino)propane iodide]	400	–
CCCCCCCCCCCCCCCCCCNC(=O)OCC(COC)CN(C(C)=O)S(=O)(=O)CCC[n+]1cccc2ccccc21 (stereo not drawn) [I k6, 3-(N-acetyl-3-quinoliniopropylsulfonylamino)-2-methoxymethyl-1-octadecylcarbamoyloxypropane iodide]	340	–
CCCCC[C@H](O)/C=C/[C@H]1[C@H](O)CC(=O)[C@@H]1CCCCCCC(=O)O [PGE1, reference compound]	259	inhibition of PAF-induced platelet aggregation (known) [2]: potently inhibit the PAF-induced platelet aggregation
